Measured values reported in publication PMC11267547, “Advancing drug discovery through assay development: a survey of tool compounds within the human solute carrier superfamily” (Frontiers in Pharmacology, 2024).
Read-outs that look alike come from different tables or passages of the source.

How the values were obtained:
SLC1A2 = SLC1A2 (Homo sapiens, UniProt P43004); experiment: Echo-MS assay, uptake of labeled glutamic acid in dox-induced HEK293–JumpIn–SLC1A2 (EAAT2) cells; assay type: cell-based; parameters: expressed in transfected cells; host or cells: Jump In T-REx HEK293
Chain of SLC1A2 (P43004 whole entry): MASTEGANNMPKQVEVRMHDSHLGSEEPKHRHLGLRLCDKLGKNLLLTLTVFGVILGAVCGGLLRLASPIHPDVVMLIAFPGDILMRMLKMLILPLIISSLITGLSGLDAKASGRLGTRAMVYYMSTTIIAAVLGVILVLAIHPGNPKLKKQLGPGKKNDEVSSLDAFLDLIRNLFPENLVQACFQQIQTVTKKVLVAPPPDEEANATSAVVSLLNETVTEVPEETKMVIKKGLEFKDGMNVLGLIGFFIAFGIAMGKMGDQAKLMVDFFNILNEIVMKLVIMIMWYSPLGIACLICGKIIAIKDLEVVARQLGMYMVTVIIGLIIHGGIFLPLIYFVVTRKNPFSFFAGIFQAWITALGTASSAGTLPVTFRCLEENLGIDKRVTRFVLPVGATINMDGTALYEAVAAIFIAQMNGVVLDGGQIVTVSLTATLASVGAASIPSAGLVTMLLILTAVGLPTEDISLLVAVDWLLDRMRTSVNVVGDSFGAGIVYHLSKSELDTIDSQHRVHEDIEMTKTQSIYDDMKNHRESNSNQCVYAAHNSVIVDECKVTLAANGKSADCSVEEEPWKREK
Method: Before the Echo-MS experiment, 15,000 cells per well were seeded into the wells of a 384-well plate (Beckman Coulter) and induced with […] doxycycline. […] The next day, compounds with stock solutions of 10 mM were first diluted to a final concentration of 90 µM before starting a 10-stage dilution series with a dilution factor of 1:3 with the CyBio FeliX pipetting robot. After the supernatant in the plate of the cell plate assay was discarded (BlueWasher, BlueCatBio), 10 µL of potassium/wash buffer including the compound dilution series was transferred by the pipetting robot (FeliX, CyBio), yielding a highest final concentration of 30 µM compound per well. After an incubation time of 15 min, 20 μL of L-Glutamic acid-13C5,15N with a concentration of 300 µM was added and incubated in an incubator at 37°C, 7.5% CO2, and 95% humidity. After 1 h incubation time, the wells were washed with 70 µL potassium buffer per well, and the supernatant was discarded before the precipitation process was started by adding 90 µL/well precipitation reagent (60% MeOH, 29% H2O, 11% formic acid) using a Multidrop Combi reagent dispenser (Thermo Fisher Scientific). After 30 min on the shaker at 500 rpm, the plates were centrifuged for 20 min at 2,000 rpm. Finally, 40 µL/well was transferred on qualified 384-well plates and then measured with Echo-MS/ADE-MS (Sciex). ADE-MS measurements were performed on an ADE-MS device (Sciex) operated with Sciex OS software (version 2.1.6.59781). A carrier solvent (60% acetonitrile, 39% H2O, and 1% formic acid) was used at a constant flow rate of 300 μL/min. For all samples, an ejection volume of 5 nL (2 droplets) and a repetition rate of 2.5 s/well were used. Triple Quad 6500+ was operated in a positive mode using the following settings: vaporizer temperature 450°C, spray voltage 5500 V, ion source gas 1: 90 psi, ion source gas 2: 70 psi, curtain gas 20 psi, CAD gas 9 psi, dwell time […], DP 35 V, EP 10 V, CE 14 V, and CXP 18 V. Data were processed with Sciex OS and further processed with Genedata Screener (version 19.0.9-Standard). Transporter inhibition by the compounds was tracked by analyzing the MS signal area values of uptaken labeled glutamic acid into the cell. The signal ratio of the reaction product to the respective standard was calculated to diminish variations ascribed to the sample preparation procedure or the MS readout. Average control values were calculated and set to 100% activity (high controls) and 0% activity (low controls), while the response values of compound-containing wells were normalized against the controls and expressed as the percentage of control (PoC).

SLC1A1 = molecular target: T1, SLC1A1 (Homo sapiens, UniProt P43005); experiment: Echo-MS assay, uptake of labeled glutamic acid in dox-induced HEK293–JumpIn–SLC1A1 (EAAT3) cells; assay type: cell-based; parameters: expressed in transfected cells; host or cells: Jump In T-REx HEK293
T1 sequence (P43005 1-524): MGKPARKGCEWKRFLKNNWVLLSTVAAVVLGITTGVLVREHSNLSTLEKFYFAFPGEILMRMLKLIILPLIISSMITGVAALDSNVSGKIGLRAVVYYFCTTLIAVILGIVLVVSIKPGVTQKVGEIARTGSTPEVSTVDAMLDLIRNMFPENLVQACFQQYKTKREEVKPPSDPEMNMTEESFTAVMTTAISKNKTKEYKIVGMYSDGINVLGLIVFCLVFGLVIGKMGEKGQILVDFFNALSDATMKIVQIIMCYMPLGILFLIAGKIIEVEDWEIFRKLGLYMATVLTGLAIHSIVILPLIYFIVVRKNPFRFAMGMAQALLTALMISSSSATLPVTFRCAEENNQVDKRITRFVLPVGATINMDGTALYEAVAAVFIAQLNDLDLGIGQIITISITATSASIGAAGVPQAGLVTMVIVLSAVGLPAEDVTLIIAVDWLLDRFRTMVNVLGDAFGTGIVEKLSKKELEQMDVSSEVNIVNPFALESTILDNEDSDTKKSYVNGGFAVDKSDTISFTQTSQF

[1] = target SLC1A2, assay EchoMS, read-out: pIC50 (act) (converted)
[2] = target SLC1A1, assay EchoMS, read-out: pIC50 (act) (converted)
[3] = dox-induced HEK293–JumpIn–SLC1A2 cells, top conc. 30 µM, read-out: pIC50, SLC1A2, EchoMS (converted)
[4] = dox-induced HEK293–JumpIn–SLC1A1 cells, top conc. 30 µM, read-out: pIC50, SLC1A1, EchoMS (converted)

Row | IC50 (SLC1A1; [4]) [µM] | SMILES | IC50 (SLC1A2; [1]) [µM] | IC50 (SLC1A1; [2]) [µM] | IC50 (SLC1A2; [3]) [µM] | IC50 (SLC1A2) [µM] | IC50 (SLC1A1) [µM]
1 | – | Cc1ccsc1C(=CCCN1CCC[C@@H](C(=O)O)C1)c1sccc1C [Tiagabine] | > 30 | > 30 | – | – | –
2 | – | CCOC(=O)N1CCC(=C2c3ccc(Cl)cc3CCc3cccnc32)CC1 [Loratadine] | > 30 | – | – | – | –
3 | – | COCCOc1cc(CC2CCN(CCc3ccc4c(c3)C(=O)CCO4)CC2)ccc1Br [DSP-1053] | 11.7 | > 30 | – | – | –
4 | – | NC(C(=O)O)C(OCc1ccccc1)C(=O)O (stereo not drawn) [Threo-beta-benzyloxyaspartic acid, Threo-beta-Benzyloxyaspartic acid] | 8.6 | > 10 | 7.94 | – | –
5 | – | CCNC(=O)/C=C/c1cccc(Br)c1 [Cinromide] | > 30 | > 30 | – | – | –
6 | 1 | N#Cc1ccc(Nc2cnccc2SCc2ccccc2C(=O)O)c2ccccc12 [KPH2f] | > 30 | 0.894 | – | – | –
7 | – | CC(C)[C@H]1CN[C@H](C(=O)O)[C@H]1CC(=O)O [Dihydrokainate] | > 30 | > 10 | – | – | –
8 | 6.31 | O=S(=O)(O)c1cc(N=C=S)ccc1/C=C/c1ccc(N=C=S)cc1S(=O)(=O)O [DIDS] | > 30 | 5.72 | – | – | –
9 | – | COc1ccc(C2C(C#N)=C(N)OC3=C2C(=O)CC(c2cccc4ccccc24)C3)cc1 (stereo not drawn) [UCPH-101] | > 30 | > 10 | – | – | –
10 | – | C=C(C)[C@H]1CN[C@H](C(=O)O)[C@H]1CC(=O)O [Kainic acid] | – | – | – | > 30 | > 10
11 | 3.16 | N[C@@H](CC(=O)Nc1ccc(Oc2cc(F)c(F)cc2Br)cc1)C(=O)O [WAY-213613] | 0.26 | 3.28 | 0.251 | – | –
12 | – | CC1C(C#N)=C(N)OC2=C1C(=O)CC(c1cccc3ccccc13)C2 (stereo not drawn) [UCPH-102] | > 30 | > 10 | – | – | –
13 | – | CNCCCN1c2ccccc2CCc2ccccc21 [Desipramine] | > 30 | > 30 | – | – | –
14 | – | Fc1ccc(C(OCCN2CCN(CCCc3ccccc3)CC2)c2ccc(F)cc2)cc1 [Vanoxerine (GBR12909), Vanoxerine] | 19.7 | – | – | – | –
15 | – | Cc1c(NC(=O)c2cc(C(N)=O)nc3cc(F)ccc23)c(C(F)(F)F)nn1Cc1ccc(C#N)cc1 [BAY-876] | > 30 | > 30 | – | – | –
16 | – | CN1C2CCC1CC(OC(c1ccccc1)c1ccccc1)C2 (stereo not drawn) [Benzotropine] | > 30 | > 30 | – | – | –

Row | SMILES | IC50 (SLC1A1; [4]) [µM] | IC50 (SLC1A2; [1]) [µM] | IC50 (SLC1A1; [2]) [µM] | IC50 (SLC1A2; [3]) [µM] | IC50 (SLC1A2) [µM] | IC50 (SLC1A1) [µM]
17 | Nc1nc2ccc(OC(F)(F)F)cc2s1 [Riluzole] | 7.94 | > 30 | 7.25 | – | – | –
18 | N[C@H](C(=O)O)[C@H](OCc1cccc(NC(=O)c2ccc(C(F)(F)F)cc2)c1)C(=O)O [TFB-TBOA] | 0.398 | 0.0088 | 0.436 | 0.00794 | – | –
